Consider 20 compounds from patent publication US12187709B2 (Genentech, Inc., priority 2021, dated 2025).

SMILES strings stand for the structures.

One assay addresses c-Cbl (Homo sapiens (Human), UniProt P22681). Briefly: C-Cbl LCK Ub TR-FRET assay (C-cbl Lck HTRF). The assay is classed as biochemical. A digest of the protocol:
(§1)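 Signal is read once the detection mix has stood 20 min at ambient temperature. Curves are anchored by DMSO as maximum and by omission of LCK as minimum.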

Another assay concerns the target Cbl-b (Homo sapiens (Human), UniProt Q13191). Briefly: Cbl-b LCK Ub TR-FRET assay (Cbl-b Lck HTRF). The class given is biochemical. Conditions: for IC50: Cbl-b LCK Ub TR-FRET; for fold-selectivity (Cbl-b over C-cbl): ratio C-cbl Lck HTRF IC50 / Cbl-b Lck HTRF IC50. The method, boiled down: as §1

Sequence of c-Cbl (P22681 47-435): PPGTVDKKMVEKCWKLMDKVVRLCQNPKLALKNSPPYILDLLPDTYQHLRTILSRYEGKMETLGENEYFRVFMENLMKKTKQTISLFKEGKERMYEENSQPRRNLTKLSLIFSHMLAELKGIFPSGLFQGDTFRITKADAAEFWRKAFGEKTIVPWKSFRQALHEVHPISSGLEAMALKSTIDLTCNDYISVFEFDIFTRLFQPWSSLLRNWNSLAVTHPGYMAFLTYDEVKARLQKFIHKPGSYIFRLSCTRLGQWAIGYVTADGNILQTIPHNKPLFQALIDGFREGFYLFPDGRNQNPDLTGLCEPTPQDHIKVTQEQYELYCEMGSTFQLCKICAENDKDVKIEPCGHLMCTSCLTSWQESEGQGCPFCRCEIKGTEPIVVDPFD
Sequence of Cbl-b (Q13191 40-426): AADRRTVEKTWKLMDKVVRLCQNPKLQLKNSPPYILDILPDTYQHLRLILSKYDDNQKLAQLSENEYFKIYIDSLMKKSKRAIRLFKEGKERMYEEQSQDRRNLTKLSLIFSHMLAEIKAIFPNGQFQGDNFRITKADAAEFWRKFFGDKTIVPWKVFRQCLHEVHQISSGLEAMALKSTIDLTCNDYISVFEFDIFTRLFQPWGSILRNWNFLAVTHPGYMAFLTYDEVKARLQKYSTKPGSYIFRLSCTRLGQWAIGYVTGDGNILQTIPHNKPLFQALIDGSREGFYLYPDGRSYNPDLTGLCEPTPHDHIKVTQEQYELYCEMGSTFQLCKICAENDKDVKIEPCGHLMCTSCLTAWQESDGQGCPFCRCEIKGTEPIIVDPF

Turning to `Cn1cnnc1C1(c2cccc(N3Cc4c(cc(CNC5(C)CCC5)cc4C(F)(F)F)C3=O)c2)CC2(CC(O)C2)C1` (stereo not drawn) [Compound 93, 2-(3-(6-hydroxy-2-(4-methyl-4H-1,2,4-triazol-3-yl)spiro[3.3]heptan-2-yl)phenyl)-6-(((1-methylcyclobutyl)amino)methyl)-4-(trifluoromethyl)isoindolin-1-one], at c-Cbl, the half-inhibitory concentration (IC50) (commonly the concentration needed to halve the response being measured) worked out at 900 nM. Moreover, on Cbl-b, the IC50 stood at 120 nM and the “fold-selectivity (Cbl-b over C-cbl)” value is given as 7.3x.
The like results for `CC(=O)N1CC2(C1)CC(c1cccc(N3Cc4c(cc(CNC5(C)CCC5)cc4C(F)(F)F)C3=O)c1)(c1nncn1C)C2` [Compound 97, 2-(3-(2-acetyl-6-(4-methyl-4H-1,2,4-triazol-3-yl)-2-azaspiro[3.3]heptan-6-yl)phenyl)-6-(((1-methylcyclobutyl)amino)methyl)-4-(trifluoromethyl)isoindolin-1-one] were, in that order, 16000 nM, 5200 nM and 3.1x.
The like results for `Cn1cnnc1C1(c2cccc(N3Cc4c(cc(CNC5(C)CCC5)cc4C(F)(F)F)C3=O)c2)CC2(CN(S(C)(=O)=O)C2)C1` [Compound 98, 2-(3-(6-(4-methyl-4H-1,2,4-triazol-3-yl)-2-(methylsulfonyl)-2-azaspiro[3.3]heptan-6-yl)phenyl)-6-(((1-methylcyclobutyl)amino)methyl)-4-(trifluoromethyl)isoindolin-1-one] were, in that order, 7500 nM, 1300 nM and 5.8x.
In the same order, the values of `Cn1cnnc1[C@]1(c2cccc(N3Cc4c(cc(CNC5(C)CCC5)cc4C(F)(F)F)C3=O)c2)C[C@](F)(CF)C1` [Compound 105, 2-(3-((1r,3r)-3-fluoro-3-(fluoromethyl)-1-(4-methyl-4H-1,2,4-triazol-3-yl)cyclobutyl)phenyl)-6-(((1-methylcyclobutyl)amino)methyl)-4-(trifluoromethyl)isoindolin-1-one] are 54 nM, 15 nM and 3.7x.
For `Cn1cnnc1[C@H](c1cccc(N2Cc3c(cc(CNC4(C)CCC4)cc3C(F)(F)F)C2=O)c1)C1CC2(COC2)C1` [Compound 121, (S)-2-(3-((4-methyl-4H-1,2,4-triazol-3-yl)(2-oxaspiro[3.3]heptan-6-yl)methyl)phenyl)-6-(((1-methylcyclobutyl)amino)methyl)-4-(trifluoromethyl)isoindolin-1-one], the IC50 at c-Cbl amounted to 20000 nM; against Cbl-b, 11000 nM. Further, at Cbl-b, the “fold-selectivity (Cbl-b over C-cbl)” value turned out to be 1.7x.
In the same order, the values of `Cn1cnnc1[C@@H](c1cccc(N2Cc3c(cc(CNC4(C)CCC4)cc3C(F)(F)F)C2=O)c1)C1CC2(COC2)C1` [Compound 122, (R)-2-(3-((4-methyl-4H-1,2,4-triazol-3-yl)(2-oxaspiro[3.3]heptan-6-yl)methyl)phenyl)-6-(((1-methylcyclobutyl)amino)methyl)-4-(trifluoromethyl)isoindolin-1-one] are 2100 nM, 1400 nM and 1.6x.
Take `Cn1cnnc1[C@@H](c1cccc(N2Cc3c(cc(CNC4(C)CCC4)cc3C(F)(F)F)C2=O)c1)[C@@H]1CCOC1` [Compound 168, 2-(3-((R)-(4-methyl-4H-1,2,4-triazol-3-yl)((S)-tetrahydrofuran-3-yl)methyl)phenyl)-6-(((1-methylcyclobutyl)amino)methyl)-4-(trifluoromethyl)isoindolin-1-one]: the results for the IC50 on c-Cbl and against Cbl-b were 34 nM and 23 nM, respectively. For the same compound, on Cbl-b, the “fold-selectivity (Cbl-b over C-cbl)” value came to 1.5x.
In the same order, the values of `Cn1cnnc1C1(c2cccc(N3Cc4c(cccc4C(F)(F)F)C3=O)c2)CC2(COC2)C1` [Compound 191, 2-(3-(6-(4-methyl-4H-1,2,4-triazol-3-yl)-2-oxaspiro[3.3]heptan-6-yl)phenyl)-4-(trifluoromethyl)isoindolin-1-one] are 9700 nM, 5700 nM and 1.7x.
In the same order, the values of `Cn1cnnc1C1(c2cccc(N3Cc4c(cc(CNC5(C)CCC5)cc4C(F)(F)F)C3=O)c2)CC2(CN(C3COC3)C2)C1` [Compound 199, 2-(3-(6-(4-methyl-4H-1,2,4-triazol-3-yl)-2-(oxetan-3-yl)-2-azaspiro[3.3]heptan-6-yl)phenyl)-6-(((1-methylcyclobutyl)amino)methyl)-4-(trifluoromethyl)isoindolin-1-one] are 20000 nM, 15000 nM and 1.4x.
On to `CO[C@H]1C[C@@](c2cc(C)cc(N3Cc4c(cc(CNC5(C)CCC5)cc4C(F)(F)F)C3=O)c2)(c2nncn2C)C1` [Compound 237, 2-(3-((1s,3s)-3-methoxy-1-(4-methyl-4H-1,2,4-triazol-3-yl)cyclobutyl)-5-methylphenyl)-6-(((1-methylcyclobutyl)amino)methyl)-4-(trifluoromethyl)isoindolin-1-one], for which the IC50 at c-Cbl was determined as 390 nM. At Cbl-b, half-maximal inhibition (IC50) was put at 340 nM and the “fold-selectivity (Cbl-b over C-cbl)” value is 1.2x.
In the same order, the values of `Cn1cnnc1[C@@H](CC1COC1)c1cccc(N2Cc3c(cc(CNC4(C)CCC4)cc3C(F)(F)F)C2=O)c1` [Compound 244, (S)-2-(3-(1-(4-methyl-4H-1,2,4-triazol-3-yl)-2-(oxetan-3-yl)ethyl)phenyl)-6-(((1-methylcyclobutyl)amino)methyl)-4-(trifluoromethyl)isoindolin-1-one] are 3600 nM, 3100 nM and 1.2x.
The like results for `Cn1cnnc1[C@H](CC1COC1)c1cccc(N2Cc3c(cc(CNC4(C)CCC4)cc3C(F)(F)F)C2=O)c1` [Compound 245, (R)-2-(3-(1-(4-methyl-4H-1,2,4-triazol-3-yl)-2-(oxetan-3-yl)ethyl)phenyl)-6-(((1-methylcyclobutyl)amino)methyl)-4-(trifluoromethyl)isoindolin-1-one] were, in that order, 110 nM, 49 nM and 2.2x.
`Cn1cnnc1[C@@H](CC1CCCC1)c1cccc(N2Cc3c(cc(CNC4(C)CCC4)cc3C(F)(F)F)C2=O)c1` [Compound 248, (S)-2-(3-(2-cyclopentyl-1-(4-methyl-4H-1,2,4-triazol-3-yl)ethyl)phenyl)-6-(((1-methylcyclobutyl)amino)methyl)-4-(trifluoromethyl)isoindolin-1-one] came in with an IC50 against c-Cbl of 2100 nM. At Cbl-b, the concentration for half-maximal inhibition (IC50) came out at 1400 nM and the “fold-selectivity (Cbl-b over C-cbl)” value is 1.6x.
The like results for `Cn1cnnc1[C@@H](c1cccc(N2Cc3c(cc(CNC4(C)CCC4)cc3C(F)(F)F)C2=O)c1)C1CCCCC1` [Compound 250, (R)-2-(3-(cyclohexyl(4-methyl-4H-1,2,4-triazol-3-yl)methyl)phenyl)-6-(((1-methylcyclobutyl)amino)methyl)-4-(trifluoromethyl)isoindolin-1-one] were, in that order, 3600 nM, 3100 nM and 1.2x.
The like results for `Cn1cnnc1[C@@H](CC1CCOCC1)c1cccc(N2Cc3c(cc(CNC4(C)CCC4)cc3C(F)(F)F)C2=O)c1` [Compound 253, (S)-2-(3-(1-(4-methyl-4H-1,2,4-triazol-3-yl)-2-(tetrahydro-2H-pyran-4-yl)ethyl)phenyl)-6-(((1-methylcyclobutyl)amino)methyl)-4-(trifluoromethyl)isoindolin-1-one] were, in that order, 140 nM, 120 nM and 1.1x.
As to `Cn1cnnc1[C@H](CC1(C)COC1)c1cccc(N2Cc3c(cc(CNC4(C)CCC4)cc3C(F)(F)F)C2=O)c1` [Compound 254, (R)-2-(3-(1-(4-methyl-4H-1,2,4-triazol-3-yl)-2-(3-methyloxetan-3-yl)ethyl)phenyl)-6-(((1-methylcyclobutyl)amino)methyl)-4-(trifluoromethyl)isoindolin-1-one], the IC50 on c-Cbl is 20000 nM. At Cbl-b, the IC50 is at least 20000 nM and the “fold-selectivity (Cbl-b over C-cbl)” value worked out at 1.0x.
The like results for `Cn1cnnc1[C@@H](CC1(C)COC1)c1cccc(N2Cc3c(cc(CNC4(C)CCC4)cc3C(F)(F)F)C2=O)c1` [Compound 255, (S)-2-(3-(1-(4-methyl-4H-1,2,4-triazol-3-yl)-2-(3-methyloxetan-3-yl)ethyl)phenyl)-6-(((1-methylcyclobutyl)amino)methyl)-4-(trifluoromethyl)isoindolin-1-one] were, in that order, 990 nM, 760 nM and 1.3x.
The like results for `Cn1cnnc1[C@H](CC1CCC1)c1cccc(N2Cc3c(cc(CNC4(C)CCC4)cc3C(F)(F)F)C2=O)c1` [Compound 268, (R)-2-(3-(2-cyclobutyl-1-(4-methyl-4H-1,2,4-triazol-3-yl)ethyl)phenyl)-6-(((1-methylcyclobutyl)amino)methyl)-4-(trifluoromethyl)isoindolin-1-one] were, in that order, 2700 nM, 1700 nM and 1.6x.
The like results for `Cn1cnnc1[C@@H](CC1CCC1)c1cccc(N2Cc3c(cc(CNC4(C)CCC4)cc3C(F)(F)F)C2=O)c1` [Compound 269, (S)-2-(3-(2-cyclobutyl-1-(4-methyl-4H-1,2,4-triazol-3-yl)ethyl)phenyl)-6-(((1-methylcyclobutyl)amino)methyl)-4-(trifluoromethyl)isoindolin-1-one] were, in that order, 300 nM, 76 nM and 4.0x.
For the compound `Cn1cnnc1[C@H](C[C@@H]1CCOC1)c1cccc(N2Cc3c(cc(CNC4(C)CCC4)cc3C(F)(F)F)C2=O)c1` [Compound 275, 2-(3-((R)-1-(4-methyl-4H-1,2,4-triazol-3-yl)-2-((R)-tetrahydrofuran-3-yl)ethyl)phenyl)-6-(((1-methylcyclobutyl)amino)methyl)-4-(trifluoromethyl)isoindolin-1-one], half-maximal inhibition against c-Cbl (IC50) was put at 20000 nM. Besides, on Cbl-b, the IC50 is at least 20000 nM and the “fold-selectivity (Cbl-b over C-cbl)” value came to 1.0x.
